Our source for the IC90 values is patent US20220396565A1 (Hoffmann-La Roche Inc., priority 2020, published 2022).

Where a name gives a salt, the structure may show the parent alone.

For one experiment, the system named is Acinetobacter baumannii ATCC17961. The experiment in a line: Antimicrobial susceptibility testing: 90% growth inhibitory concentration (IC90) determination, Iso-Sensitest broth. Format: cell-based. The conditions noted are these: 90% growth inhibitory concentration, Acinetobacter baumannii ATCC17961, Iso-Sensitest broth; read-out: ATCC 17961 IC90. The gist of the method:
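Twofold serial dilutions (e.g. 10 to 0.02 μM final) were tested in Iso-Sensitest broth against ~5×10^(5) CFU/ml at 35±2 °C. OD600 was read every 20 min over 16 h. IC90 was derived from growth inhibition during the logarithmic phase.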
As to `COc1ccc(-c2cnc(C(=O)Nc3ccc(C(=O)N4CCN(C(=O)C5CCN(S(=O)(=O)CCN)CC5)CC4)c(Cl)c3)n2C)c(F)c1F` [Example 242, N-[4-[4-[1-(2-aminoethylsulfonyl)pipe-ridine-4-carbonyl]piperazine-1-carbonyl]-3-chloro-phenyl]-5-(2,3-difluoro-4-methoxy-phenyl)-1-methyl-imidazole-2-carboxamide], the IC90 worked out at 90 nM.

The experiment is the same for the next values; noted with them: Acinetobacter baumannii, ATCC17961, 90% growth inhibitory concentration, Acinetobacter baumannii ATCC17961, Iso-Sensitest broth; read-out: ATCC 17961 IC90.
As for `Cn1c(-c2ccc(OC(F)F)c(F)c2F)cnc1C(=O)Nc1ccc(C(=O)N2CCN(C(=O)C[C@@H]3CCCN3)CC2)c(Cl)c1` [Example 224, (S)-N-(3-chloro-4-(4-(2-(pyrrolidin-2-yl)acetyl)piperazine-1-carbonyl)phenyl)-5-(4-(difluoromethoxy)-2,3-difluorophenyl)-1-methyl-1H-imidazole-2-carboxamide formate], the IC90 turned out to be 30 nM. For `Cc1cc(NC(=O)c2ncc(-c3ccc(OCC#N)c(F)c3F)n2C)ccc1C(=O)N1CCN(C(=O)[C@@H]2C[C@](C)(O)CN2)CC1` [Example 225, 5-[4-(cyanomethoxy)-2,3-difluoro-phenyl]-N-[4-[4-[(2S,4S)-4-hydroxy-4-methyl-pyrrolidine-2-carbonyl]piperazine-1-carbonyl]-3-methyl-phenyl]-1-methyl-imidazole-2-carboxamide formate], the IC90 was 160 nM. The same measure, in the same setting: the same measure for `CC[C@@]1(O)CN[C@H](C(=O)N2CCN(C(=O)c3ccc(NC(=O)c4ncc(-c5ccc(OCC#N)c(F)c5F)n4C)cc3C)CC2)C1` [Example 226, 5-[4-(cyanomethoxy)-2,3-difluoro-phenyl]-N-[4-[4-[(2S,4S)-4-ethyl-4-hydroxy-pyrrolidine-2-carbonyl]piperazine-1-carbonyl]-3-methyl-phenyl]-1-methyl-imidazole-2-carboxamide formate]: 130 nM; for `Cn1c(-c2ccc(OCC#N)c(F)c2F)cnc1C(=O)Nc1ccc(C(=O)N2CCN(C(=O)[C@@H]3CCNC[C@H]3O)CC2)c(Cl)c1` [Example 227, N-(3-chloro-4-(4-((3S,4R)-3-hydroxypiperidine-4-carbonyl)piperazine-1-carbonyl)phenyl)-5-(4-(cyanomethoxy)-2,3-difluorophenyl)-1-methyl 1H-imidazole-2-carboxamide (S)-2-hydroxypropanoate]: 90 nM.

Turning to `COc1ccc(-c2cnc(C(=O)Nc3ccc(C(=O)N4CCN(C(=O)[C@@H]5CCNC[C@@H]5O)CC4)c(Cl)c3)n2C)c(F)c1F` [Example 228, N-[3-chloro-4-[4-[(3R,4R)-3-hydroxypiperidine-4-carbonyl]piperazine-1-carbonyl]phenyl]-5-(2,3-difluoro-4-methoxy-phenyl)-1-methyl-imidazole-2-carboxamide], the IC90 is 180 nM. In the case of `COc1ccc(-c2cnc(C(=O)Nc3ccc(C(=O)N4CCN(C(=O)[C@H]5CCNC[C@H]5O)CC4)c(Cl)c3)n2C)c(F)c1F` [Example 229, N-[3-chloro-4-[4-[(3S,4S)-3-hydroxypiperidine-4-carbonyl]piperazine-1-carbonyl]phenyl]-5-(2,3-difluoro-4-methoxy-phenyl)-1-methyl-imidazole-2-carboxamide], the IC90 stood at 90 nM.

With `COc1ccc(-c2cnc(C(=O)Nc3ccc(C(=O)N4CCN(C(=O)[C@@H]5CCNC[C@H]5O)CC4)c(Cl)c3)n2C)c(F)c1F` [Example 230, N-[3-chloro-4-[4-[(3S,4R)-3-hydroxypiperidine-4-carbonyl]piperazine-1-carbonyl]phenyl]-5-(2,3-difluoro-4-methoxy-phenyl)-1-methyl-imidazole-2-carboxamide formate], the IC90 was determined as 100 nM. For `COc1ccc(-c2cnc(C(=O)Nc3ccc(C(=O)N4CCN(C(=O)[C@H]5CCNC[C@@H]5O)CC4)c(Cl)c3)n2C)c(F)c1F` [Example 231, N-[3-chloro-4-[4-[(3R,4S)-3-hydroxypiperidine-4-carbonyl]piperazine-1-carbonyl]phenyl]-5-(2,3-difluoro-4-methoxy-phenyl)-1-methyl-imidazole-2-carboxamide formate], the IC90 was found to be 160 nM.

Take `COc1ccc(-c2cnc(C(=O)Nc3ccc(C(=O)N4CCN(C(=O)[C@@H]5C[C@](C)(O)CN5)CC4)c(Cl)c3)n2C)c(F)c1F` [Example 232, N-[3-chloro-4-[4-[(2S,4S)-4-hydroxy-4-methyl-pyrrolidine-2-carbonyl]piperazine-1-carbonyl]phenyl]-5-(2,3-difluoro-4-methoxy-phenyl)-1-methyl-imidazole-2-carboxamide formate]: the IC90 stood at 90 nM. As for `CC[C@@]1(O)CN[C@H](C(=O)N2CCN(C(=O)c3ccc(NC(=O)c4ncc(-c5ccc(OC)c(F)c5F)n4C)cc3Cl)CC2)C1` [Example 233, N-[3-chloro-4-[4-[(2S,4S)-4-ethyl-4-hydroxy-pyrrolidine-2-carbonyl]piperazine-1-carbonyl]phenyl]-5-(2,3-difluoro-4-methoxy-phenyl)-1-methyl-imidazole-2-carboxamide formate], the IC90 stood at 130 nM. On the same count and under the same terms, the same measure for `COc1ccc(-c2cnc(C(=O)Nc3ccc(C(=O)N4CCN(C(=O)[C@@H]5CCNC[C@@H]5O)CC4)c(C)c3)n2C)c(F)c1F` [Example 234, 5-(2,3-difluoro-4-methoxy-phenyl)-N-[4-[4-[(3R,4R)-3-hydroxypiperidine-4-carbonyl]piperazine-1-carbonyl]-3-methyl-phenyl]-1-methyl-imidazole-2-carboxamide formate]: 180 nM; for `COc1ccc(-c2cnc(C(=O)Nc3ccc(C(=O)N4CCC(NS(=O)(=O)CCN)CC4)c(Cl)c3)n2C)c(F)c1F` [Example 236, N-[4-[4-(2-aminoethylsulfonylami-no)piperidine-1-carbonyl]-3-chloro-phenyl]-5-(2,3-difluoro-4-methoxy-phenyl)-1-methyl-imidazole-2-carboxamide]: 60 nM. Same read-out and setting: in the case of `COc1ccc(-c2cnc(C(=O)Nc3ccc(C(=O)N4CCC(NS(=O)(=O)C5CCNC5)CC4)c(Cl)c3)n2C)c(F)c1F` (centres unmarked) [Example 237, N-[3-chloro-4-[4-(pyrrolidin-3-ylsulfonylamino)piper-idine-1-carbonyl]phenyl]-5-(2,3-difluoro-4-methoxy-phenyl)-1-methyl-imidazole-2-carboxamide] it was 50 nM. Take `COc1ccc(-c2cnc(C(=O)Nc3ccc(C(=O)N4CCC(NS(C)(=O)=O)CC4)c(Cl)c3)n2C)c(F)c1F` [Example 238, N-[3-chloro-4-[4-(methanesulfonamido)piperidine-1-carbonyl]phenyl]-5-(2,3-difluoro-4-methoxy-phenyl)-1-methyl-imidazole-2-carboxamide]: the IC90 was 130 nM. Still for that read-out and setting: the same measure for `COc1ccc(-c2cnc(C(=O)Nc3ccc(C(=O)N4CCN(S(=O)(=O)CCN)CC4)c(Cl)c3)n2C)c(F)c1F` [Example 239, N-[4-[4-(2-aminoethylsulfonyl)piper-razine-1-carbonyl]-3-chloro-phenyl]-5-(2,3-difluoro-4-methoxy-phenyl)-1-methyl-imidazole-2-carboxamide]: 150 nM; for `COc1ccc(-c2cnc(C(=O)Nc3ccc(C(=O)N4CCN(S(C)(=O)=O)CC4)c(Cl)c3)n2C)c(F)c1F` [Example 240, N-[3-chloro-4-(4-methylsulfonylpiperazine-1-carbonyl)phenyl]-5-(2,3-difluoro-4-methoxy-phenyl)-1-methyl-imidazole-2-carboxamide]: 320 nM; for `COc1ccc(-c2cnc(C(=O)Nc3ccc(C(=O)N4CCN(S(=O)(=O)C5CCNC5)CC4)c(Cl)c3)n2C)c(F)c1F` (centres unmarked) [Example 241, N-[3-chloro-4-(4-pyrrolidin-3-ylsulfonylpiperazine-1-carbonyl)phenyl]-5-(2,3-difluoro-4-methoxy-phenyl)-1-methyl-imidazole-2-carboxamide]: 150 nM.

For the molecule `COc1ccc(-c2cnc(C(=O)Nc3ccc(C(=O)N4CCN(CC(N)=O)CC4)c(Cl)c3)n2C)c(F)c1F` [Example 244, N-[4-[4-(2-amino-2-oxo-ethyl)piperazine-1-carbonyl]-3-chloro-phenyl]-5-(2,3-difluoro-4-methoxy-phenyl)-1-methyl-imidazole-2-carboxamide], the IC90 was found to be 100 nM. On to `COc1ccc(-c2cnc(C(=O)Nc3ccc(C(=O)N4CCN(C(=O)CCOCCN)CC4)c(Cl)c3)n2C)c(F)c1F` [Example 246, N-[4-[4-[3-(2-aminoethoxy)propanoyl]piperazine-1-carbonyl]-3-chloro-phenyl]-5-(2,3-difluoro-4-methoxy-phenyl)-1-methyl-imidazole-2-carboxamide formate], for which the IC90 worked out at 100 nM.

The same experiment, now with this note: Acinetobacter baumannii, ATCC17961, read-out: ATCC 17961 IC90.
Take `Cn1c(-c2ccc(OC(F)F)c(F)c2F)cnc1C(=O)Nc1ccc(C(=O)N2CCN(C(=O)CC3(O)CCNCC3)CC2)c(Cl)c1` [Example 223, N-(3-chloro-4-(4-(2-(4-hydroxypiperidin-4-yl)acetyl)piperazine-1-carbonyl)phenyl)-5-(4-(difluoromethoxy)-2,3-difluorophenyl)-1-methyl 1H-imidazole-2-carboxamide formate]: the IC90 is 50 nM. On the same count and under the same terms, the same measure for `COc1ccc(-c2cnc(C(=O)Nc3ccc(C(=O)N4CCC(NS(=O)(=O)C5CCNCC5)CC4)c(Cl)c3)n2C)c(F)c1F` [Example 235, N-[3-Chloro-4-[4-(4-piperidylsulfonylamino)piperidine-1-carbonyl]phenyl]-5-(2,3-difluoro-4-methoxy-phenyl)-1-methyl-imidazole-2-carboxamide formate]: 60 nM; for `Cn1c(-c2ccc(OC(F)F)c(F)c2F)cnc1C(=O)Nc1ccc(C(=O)N2CCC(C(=O)NCC3CNC3)CC2)c(Cl)c1` [Example 245, N-(Azetidin-3-ylmethyl)-1-[2-chloro-4-[[5-[4-(difluoromethoxy)-2,3-difluoro-phenyl]-1-methyl-imidazole-2-carbonyl]amino]benzoyl]piperidine-4-carboxamide trifluoroacetate]: 30 nM.
